ChEMBL document CHEMBL2073785, “The role of the efflux transporter P-glycoprotein in brain penetration of prednisolone” (J Endocrinol, 2002)

Target: ATP-dependent translocase ABCB1 (Homo sapiens, UniProt P08183)
Assay: TP_TRANSPORTER: transepithelial transport (basal to apical) in MDR1-expressing LLC-PK1 cells
Type: functional, cell-based
Settings: pig

ATP-dependent translocase ABCB1, sequence (P08183 whole entry): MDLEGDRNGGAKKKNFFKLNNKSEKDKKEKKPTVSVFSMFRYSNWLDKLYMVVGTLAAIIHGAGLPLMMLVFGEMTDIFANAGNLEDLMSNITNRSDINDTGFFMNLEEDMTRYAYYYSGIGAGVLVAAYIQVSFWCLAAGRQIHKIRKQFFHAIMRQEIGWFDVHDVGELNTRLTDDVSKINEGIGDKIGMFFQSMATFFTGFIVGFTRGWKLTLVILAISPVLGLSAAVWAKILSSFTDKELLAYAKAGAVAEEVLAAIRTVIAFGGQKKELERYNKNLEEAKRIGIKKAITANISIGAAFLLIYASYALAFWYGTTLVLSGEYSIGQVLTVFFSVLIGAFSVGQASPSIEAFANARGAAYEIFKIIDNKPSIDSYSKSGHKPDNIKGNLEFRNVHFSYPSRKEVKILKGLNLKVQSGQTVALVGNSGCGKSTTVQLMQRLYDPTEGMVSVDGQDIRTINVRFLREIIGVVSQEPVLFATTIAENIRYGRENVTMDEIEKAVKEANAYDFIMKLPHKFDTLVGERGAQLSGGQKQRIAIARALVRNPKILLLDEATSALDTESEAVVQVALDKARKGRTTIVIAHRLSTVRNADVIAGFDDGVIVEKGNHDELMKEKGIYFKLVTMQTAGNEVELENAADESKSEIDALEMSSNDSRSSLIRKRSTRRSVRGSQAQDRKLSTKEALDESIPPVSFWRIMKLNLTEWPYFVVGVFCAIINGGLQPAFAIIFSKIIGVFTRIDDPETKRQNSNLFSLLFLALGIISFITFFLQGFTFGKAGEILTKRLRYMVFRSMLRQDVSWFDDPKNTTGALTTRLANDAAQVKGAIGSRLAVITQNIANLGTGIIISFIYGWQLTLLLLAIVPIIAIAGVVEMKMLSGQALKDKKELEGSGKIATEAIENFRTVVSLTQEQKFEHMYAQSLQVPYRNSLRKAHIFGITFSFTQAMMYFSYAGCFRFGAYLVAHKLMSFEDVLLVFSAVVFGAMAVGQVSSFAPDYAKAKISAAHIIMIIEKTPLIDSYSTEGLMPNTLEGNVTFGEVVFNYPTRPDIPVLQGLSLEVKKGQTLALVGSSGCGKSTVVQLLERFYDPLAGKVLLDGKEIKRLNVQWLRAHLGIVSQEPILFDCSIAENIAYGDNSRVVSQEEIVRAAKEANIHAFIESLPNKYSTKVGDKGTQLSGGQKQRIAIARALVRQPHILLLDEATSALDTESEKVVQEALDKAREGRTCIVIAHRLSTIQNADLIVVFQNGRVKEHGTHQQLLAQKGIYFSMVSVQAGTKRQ

Question: `C[C@]12CCC(=O)C=C1CC[C@@H]1[C@@H]2CC[C@@]2(C)[C@H]1CC[C@]2(O)C(=O)CO` [CORTODOXONE] was tested. Which Activity did it give?
Answer: Its Activity is “is not a substrate [-]”.
